In patent US11591329B2, “Bicyclic heterocycles as FGFR inhibitors” (Incyte Corporation, priority 2019, dated 2023):

biological target: FGFR3 enzyme (Homo sapiens (Human), UniProt P22607); experiment: FGFR Enzymatic Assay (peptide phosphorylation, FRET); type: biochemical; settings: pre-incubated for 4 hours; ATP 140 μM; 25° C. for 1 hr
Procedure: The inhibitor potency of the exemplified compounds was measured in an enzyme assay that measures peptide phosphorylation using FRET measurements to detect product formation. Inhibitors were serially diluted in DMSO and a volume of 0.5 μL was transferred to the wells of a 384-well plate. For FGFR3, a 10 μL volume of FGFR3 enzyme (Millipore) diluted in assay buffer (50 mM HEPES, 10 mM MgCl2, 1 mM EGTA, 0.01% Tween-20, 5 mM DTT, pH 7.5) was added to the plate and pre-incubated for a time between 5-10 minutes and up to 4 hours. Appropriate controls (enzyme blank and enzyme with no inhibitor) were included on the plate. The assay was initiated by the addition of a 10 μL solution containing biotinylated EQEDEPEGDYFEWLE peptide substrate (SEQ ID NO: 1) and ATP (final concentrations of 500 nM and 140 μM respectively) in assay buffer to the wells. The plate was incubated at 25° C. for 1 hr. The reactions were ended with the addition of 10 μL/well of quench solution (50 mM Tris, 150 mM NaCl, 0.5 mg/mL BSA, pH 7.8; 30 mM EDTA with Perkin Elmer Lance Reagents at 3.75 nM Eu-antibody PY20 and 180 nM APC-Streptavidin). The plate was allowed to equilibrate for ˜1 hr before scanning the wells on a PheraStar plate reader (BMG Labtech).
GraphPad prism3 was used to analyze the data. The IC50 values were derived by fitting the data to the equation for a sigmoidal dose-response with a variable slope. Y=Bottom+(Top−Bottom)/(1+10^((LogIC50−X)*HillSlope)) where X is the logarithm of concentration and Y is the response.
Table 1 provides IC50 data for compounds of the invention assayed in the FGFR Enzymatic Assay after dilution in assay buffer, added to the plate and pre-incubated for 4 hours. The symbol: “+” indicates an IC50 less than 10 nM; “++” indicates an IC50 greater than or equal to 10 nM but less than 30 nM; “+++” indicates an IC50 greater than or equal to 30 nM but less than 200 nM; and “++++” indicates an IC50 greater than or equal to 200 nM.

FGFR3 enzyme, sequence (P22607 23-806): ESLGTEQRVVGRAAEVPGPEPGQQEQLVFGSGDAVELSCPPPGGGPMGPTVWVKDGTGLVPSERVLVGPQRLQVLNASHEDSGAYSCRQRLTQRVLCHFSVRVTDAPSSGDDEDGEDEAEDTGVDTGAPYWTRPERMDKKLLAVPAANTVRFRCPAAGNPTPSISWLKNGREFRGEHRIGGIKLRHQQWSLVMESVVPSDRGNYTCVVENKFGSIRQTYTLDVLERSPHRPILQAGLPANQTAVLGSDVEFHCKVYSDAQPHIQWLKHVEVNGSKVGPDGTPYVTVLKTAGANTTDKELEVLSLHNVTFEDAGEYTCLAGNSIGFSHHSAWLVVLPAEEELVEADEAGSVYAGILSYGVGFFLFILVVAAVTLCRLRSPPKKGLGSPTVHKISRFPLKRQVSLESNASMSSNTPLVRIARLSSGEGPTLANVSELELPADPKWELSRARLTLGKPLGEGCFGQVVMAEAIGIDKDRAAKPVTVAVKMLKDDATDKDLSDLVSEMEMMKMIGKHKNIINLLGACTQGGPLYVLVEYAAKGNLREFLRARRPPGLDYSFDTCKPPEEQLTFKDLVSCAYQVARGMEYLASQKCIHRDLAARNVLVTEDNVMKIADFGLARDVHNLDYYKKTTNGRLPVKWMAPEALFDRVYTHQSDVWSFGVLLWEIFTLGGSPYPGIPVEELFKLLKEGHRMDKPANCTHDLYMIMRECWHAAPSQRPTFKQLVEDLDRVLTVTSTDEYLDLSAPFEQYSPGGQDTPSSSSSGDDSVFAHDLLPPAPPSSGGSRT

| IC50 | SMILES |
| --- | --- |
| ≥ 200 nM | Cn1cc(-c2n[nH]c3ccc(N4CCCC(O)C4)nc23)cn1 (centres unmarked) [Example 1, 1-(3-(1-Methyl-1H-pyrazol-4-yl)-1H-pyrazolo[4,3-b]pyridin-5-yl)piperidin-3-ol] |
| < 10 nM | Cn1cc(-c2n[nH]c3ccc(N4CCn5cnc(C(F)(F)F)c5C4)nc23)cn1 [Example 2, 3-(1-Methyl-1H-pyrazol-4-yl)-5-(1-(trifluoromethyl)-5,6-dihydroimidazo[1,5-a]pyrazin-7(8H)-yl)-1H-pyrazolo[4,3-b]pyridine] |
| ≥ 200 nM | Cn1cc(-c2n[nH]c3ccc(N4CCCn5nccc54)nc23)cn1 [Example 3, 5-(6,7-Dihydropyrazolo[1,5-a]pyrimidin-4(5H)-yl)-3-(1-methyl-1H-pyrazol-4-yl)-1H-pyrazolo[4,3-b]pyridine] |
| < 10 nM | CC(C)C1C(=O)N(C)CCN1c1ccc2[nH]nc(-c3cnn(C)c3)c2n1 (centres unmarked) [Example 5, 3-Isopropyl-1-methyl-4-(3-(1-methyl-1H-pyrazol-4-yl)-1H-pyrazolo[4,3-b]pyridin-5-yl)piperazin-2-one] |
| < 10 nM | CCC1C(=O)N(C)CCN1c1ccc2[nH]nc(-c3cnn(C)c3)c2n1 (centres unmarked) [Example 6, 3-Ethyl-1-methyl-4-(3-(1-methyl-1H-pyrazol-4-yl)-1H-pyrazolo[4,3-b]pyridin-5-yl)piperazin-2-one] |
| 10 to 30 nM | CCC1(CC)C(=O)N(C)CCN1c1ccc2[nH]nc(-c3cnn(C)c3)c2n1 [Example 7, 3,3-Diethyl-1-methyl-4-(3-(1-methyl-1H-pyrazol-4-yl)-1H-pyrazolo[4,3-b]pyridin-5-yl)piperazin-2-one] |
| 10 to 30 nM | CN1CCN(c2ccc3[nH]nc(-c4cnn(C)c4)c3n2)C(Cc2ccccc2)C1=O (centres unmarked) [Example 8, 3-Benzyl-1-methyl-4-(3-(1-methyl-1H-pyrazol-4-yl)-1H-pyrazolo[4,3-b]pyridin-5-yl)piperazin-2-one] |
| 10 to 30 nM | CN1CCN(c2ccc3[nH]nc(-c4cnn(C)c4)c3n2)C(CC2CC2)C1=O (centres unmarked) [Example 9, 3-(Cyclopropylmethyl)-1-methyl-4-(3-(1-methyl-1H-pyrazol-4-yl)-1H-pyrazolo[4,3-b]pyridin-5-yl)piperazin-2-one] |
| ≥ 200 nM | CN1CCN(c2ccc3[nH]nc(-c4cnn(C)c4)c3n2)C(C2CCOCC2)C1=O (centres unmarked) [Example 10, 1-Methyl-4-(3-(1-methyl-1H-pyrazol-4-yl)-1H-pyrazolo[4,3-b]pyridin-5-yl)-3-(tetrahydro-2H-pyran-4-yl)piperazin-2-one] |
| ≥ 200 nM | CN1CCN(c2ccc3[nH]nc(-c4cnn(C)c4)c3n2)C(Cc2ccncc2)C1=O (centres unmarked) [Example 11, 1-Methyl-4-(3-(1-methyl-1H-pyrazol-4-yl)-1H-pyrazolo[4,3-b]pyridin-5-yl)-3-(pyridin-4-ylmethyl)piperazin-2-one] |
| < 10 nM | CC(c1ccccc1)C1C(=O)N(C)CCN1c1ccc2[nH]nc(-c3cnn(C)c3)c2n1 (centres unmarked) [Example 12, 1-Methyl-4-(3-(1-methyl-1H-pyrazol-4-yl)-1H-pyrazolo[4,3-b]pyridin-5-yl)-3-(1-phenylethyl)piperazin-2-one] |
| < 10 nM | CN1CCN(c2ccc3[nH]nc(-c4cnn(C)c4)c3n2)C(C2CC2)C1=O (centres unmarked) [Example 13, 3-Cyclopropyl-1-methyl-4-(3-(1-methyl-1H-pyrazol-4-yl)-1H-pyrazolo[4,3-b]pyridin-5-yl)piperazin-2-one] |
| 10 to 30 nM | CC1C(=O)N(C2CC2)CCN1c1ccc2[nH]nc(-c3cnn(C)c3)c2n1 (centres unmarked) [Example 14, 1-Cyclopropyl-3-methyl-4-(3-(1-methyl-1H-pyrazol-4-yl)-1H-pyrazolo[4,3-b]pyridin-5-yl)piperazin-2-one] |
| < 10 nM | CC1CN(c2ccc3[nH]nc(-c4cnn(C)c4)c3n2)C(C)C(=O)N1C (centres unmarked) [Example 15, 1,3,6-Trimethyl-4-(3-(1-methyl-1H-pyrazol-4-yl)-1H-pyrazolo[4,3-b]pyridin-5-yl)piperazin-2-one] |
| < 10 nM | CC(C)C1C(=O)N(C)CCN1c1ccc2[nH]nc(-c3cnn(Cc4cccnc4)c3)c2n1 (centres unmarked) [Example 16, 3-Isopropyl-1-methyl-4-(3-(1-(pyridin-3-ylmethyl)-1H-pyrazol-4-yl)-1H-pyrazolo[4,3-b]pyridin-5-yl)piperazin-2-one] |
| 10 to 30 nM | CC(C)C1C(=O)N(C)CCN1c1ccc2[nH]nc(-c3cnn(CCN4CCOCC4)c3)c2n1 (centres unmarked) [Example 17, 3-Isopropyl-1-methyl-4-(3-(1-(2-morpholinoethyl)-1H-pyrazol-4-yl)-1H-pyrazolo[4,3-b]pyridin-5-yl)piperazin-2-one] |
| < 10 nM | CC(C)C1C(=O)N(C)CCN1c1ccc2[nH]nc(-c3ccc(N4CCN(C)CC4)c(F)c3)c2n1 (centres unmarked) [Example 18, 4-(3-(3-Fluoro-4-(4-methylpiperazin-1-yl)phenyl)-1H-pyrazolo[4,3-b]pyridin-5-yl)-3-isopropyl-1-methylpiperazin-2-one] |
| < 10 nM | CC(C)C1C(=O)N(C)CCN1c1ccc2[nH]nc(-c3cc4cnccc4s3)c2n1 (centres unmarked) [Example 19, 3-Isopropyl-1-methyl-4-(3-(thieno[3,2-c]pyridin-2-yl)-1H-pyrazolo[4,3-b]pyridin-5-yl)piperazin-2-one] |
| 30 to 200 nM | CC(C)C1C(=O)N(C)CCN1c1ccc2[nH]nc(-c3cn(C)nn3)c2n1 (centres unmarked) [Example 20, 3-Isopropyl-1-methyl-4-(3-(1-methyl-1H-1,2,3-triazol-4-yl)-1H-pyrazolo[4,3-b]pyridin-5-yl)piperazin-2-one] |
| 10 to 30 nM | CC1C(=O)N(C)CCN1c1nc2c(-c3cnn(C)c3)n[nH]c2cc1Cl (centres unmarked) [Example 21, 4-(6-Chloro-3-(1-methyl-1H-pyrazol-4-yl)-1H-pyrazolo[4,3-b]pyridin-5-yl)-1,3-dimethylpiperazin-2-one] |
| 30 to 200 nM | Cc1cc2[nH]nc(-c3cnn(C)c3)c2nc1N1CCN(C)C(=O)C1C (centres unmarked) [Example 22, 1,3-Dimethyl-4-(6-methyl-3-(1-methyl-1H-pyrazol-4-yl)-1H-pyrazolo[4,3-b]pyridin-5-yl)piperazin-2-one] |
| 30 to 200 nM | CC1C(=O)N(C)CCN1c1nc2c(-c3cnn(C)c3)n[nH]c2cc1C#N (centres unmarked) [Example 23, 5-(2,4-Dimethyl-3-oxopiperazin-1-yl)-3-(1-methyl-1H-pyrazol-4-yl)-1H-pyrazolo[4,3-b]pyridine-6-carbonitrile] |
| 30 to 200 nM | COc1cc2[nH]nc(-c3cnn(C)c3)c2nc1N1CCN(C)C(=O)C1C (centres unmarked) [Example 24, 4-(6-Methoxy-3-(1-methyl-1H-pyrazol-4-yl)-1H-pyrazolo[4,3-b]pyridin-5-yl)-1,3-dimethylpiperazin-2-one] |
| 30 to 200 nM | CC1C(=O)N(C)CCN1c1nc2c(-c3cnn(C)c3)n[nH]c2cc1-c1ccoc1 (centres unmarked) [Example 25, 4-(6-(Furan-3-yl)-3-(1-methyl-1H-pyrazol-4-yl)-1H-pyrazolo[4,3-b]pyridin-5-yl)-1,3-dimethylpiperazin-2-one] |
| 30 to 200 nM | CC1C(=O)N(C)CCN1c1nc2c(-c3cnn(C)c3)n[nH]c2cc1Cc1ccccc1 (centres unmarked) [Example 26, 4-(6-Benzyl-3-(1-methyl-1H-pyrazol-4-yl)-1H-pyrazolo[4,3-b]pyridin-5-yl)-1,3-dimethylpiperazin-2-one] |

| SMILES | IC50 |
| --- | --- |
| CN1CC2CCC(C1=O)N2c1ccc2[nH]nc(-c3cnn(C)c3)c2n1 (centres unmarked) [Example 4, 3-Methyl-8-(3-(1-methyl-1H-pyrazol-4-yl)-1H-pyrazolo[4,3-b]pyridin-5-yl)-3,8-diazabicyclo[3.2.1]octan-2-one] | < 10 nM |
